Laboratory results reported in PubChem BioAssay AID1259407 (Chemical Carcinogenesis Research Information System (CCRIS), 2018).
The source made the active and inactive calls. No rule for the calls is given here.

Tested on: CCRIS mutagenicity, Ames/micronucleus/aberration tests
Assay: CCRIS mutagenicity studies
[1] = Test System: AMES SALMONELLA TYPHIMURIUM, Strain/Indicator: TA98, Metabolic Activation: NONE, Method: PREINCUBATION
[2] = Test System: AMES SALMONELLA TYPHIMURIUM, Strain/Indicator: TA100, Metabolic Activation: NONE, Method: PREINCUBATION

Measured: mutagenic call

C[C@H](CCC(=O)O)[C@H]1CC[C@H]2[C@@H]3CC[C@@H]4C[C@H](O)CC[C@]4(C)[C@H]3CC[C@]12C
inactive: Test System: AMES SALMONELLA TYPHIMURIUM, Strain/Indicator: TA97, Metabolic Activation: HAMSTER, LIVER, S-9, AROCLOR 1254 (10 OR 30%), Method: PREINCUBATION inactive; negative | Test System: AMES SALMONELLA TYPHIMURIUM, Strain/Indicator: TA97, Metabolic Activation: NONE, Method: PREINCUBATION inactive; negative | Test System: AMES SALMONELLA TYPHIMURIUM, Strain/Indicator: TA97, Metabolic Activation: RAT, LIVER, S-9, AROCLOR 1254 (10%), Method: PREINCUBATION inactive; negative | Test System: AMES SALMONELLA TYPHIMURIUM, Strain/Indicator: TA97, Metabolic Activation: RAT, LIVER, S-9, AROCLOR 1254 (30%), Method: PREINCUBATION inactive; negative | Test System: AMES SALMONELLA TYPHIMURIUM, Strain/Indicator: TA98, Metabolic Activation: HAMSTER, LIVER, S-9, AROCLOR 1254 (10 OR 30%), Method: PREINCUBATION inactive; negative | Test System: AMES SALMONELLA TYPHIMURIUM, Strain/Indicator: TA98, Metabolic Activation: NONE, Method: FLUCTUATION TEST inactive; negative | [1] inactive; negative | Test System: AMES SALMONELLA TYPHIMURIUM, Strain/Indicator: TA98, Metabolic Activation: RAT, LIVER, S-9, AROCLOR 1254 (10%), Method: PREINCUBATION inactive; negative | Test System: AMES SALMONELLA TYPHIMURIUM, Strain/Indicator: TA98, Metabolic Activation: RAT, LIVER, S-9, AROCLOR 1254 (30%), Method: PREINCUBATION inactive; negative | Test System: AMES SALMONELLA TYPHIMURIUM, Strain/Indicator: TA98, Method: PREINCUBATION inactive; negative | Test System: AMES SALMONELLA TYPHIMURIUM, Strain/Indicator: TA100, Metabolic Activation: HAMSTER, LIVER, S-9, AROCLOR 1254 (10 OR 30%), Method: PREINCUBATION inactive; negative | Test System: AMES SALMONELLA TYPHIMURIUM, Strain/Indicator: TA100, Metabolic Activation: NONE, Method: FLUCTUATION TEST inactive; negative | [2] inactive; negative | Test System: AMES SALMONELLA TYPHIMURIUM, Strain/Indicator: TA100, Metabolic Activation: NONE, Method: STANDARD PLATE inactive; negative | Test System: AMES SALMONELLA TYPHIMURIUM, Strain/Indicator: TA100, Metabolic Activation: RAT, LIVER, S-9, AROCLOR 1254 (10%), Method: PREINCUBATION inactive; negative | Test System: AMES SALMONELLA TYPHIMURIUM, Strain/Indicator: TA100, Metabolic Activation: RAT, LIVER, S-9, AROCLOR 1254 (30%), Method: PREINCUBATION inactive; negative | Test System: AMES SALMONELLA TYPHIMURIUM, Strain/Indicator: TA100, Metabolic Activation: RAT, LIVER, S-9, AROCLOR 1254, Method: STANDARD PLATE inactive; negative | Test System: AMES SALMONELLA TYPHIMURIUM, Strain/Indicator: TA1535, Metabolic Activation: HAMSTER, LIVER, S-9, AROCLOR 1254 (10 OR 30%), Method: PREINCUBATION inactive; negative | Test System: AMES SALMONELLA TYPHIMURIUM, Strain/Indicator: TA1535, Metabolic Activation: NONE, Method: PREINCUBATION inactive; negative | Test System: AMES SALMONELLA TYPHIMURIUM, Strain/Indicator: TA1535, Metabolic Activation: RAT, LIVER, S-9, AROCLOR 1254 (10%), Method: PREINCUBATION inactive; negative | Test System: AMES SALMONELLA TYPHIMURIUM, Strain/Indicator: TA1535, Metabolic Activation: RAT, LIVER, S-9, AROCLOR 1254 (30%), Method: PREINCUBATION inactive; negative | Test System: E. COLI, Strain/Indicator: WP2 UVRA, Metabolic Activation: HAMSTER, LIVER, S-9, AROCLOR 1254, Method: STANDARD PLATE inactive; negative | Test System: E. COLI, Strain/Indicator: WP2 UVRA, Metabolic Activation: HAMSTER, LIVER, S-9, Method: STANDARD PLATE inactive; negative | Test System: E. COLI, Strain/Indicator: WP2 UVRA, Metabolic Activation: MOUSE, LIVER, S-9, AROCLOR 1254, Method: STANDARD PLATE inactive; negative | Test System: E. COLI, Strain/Indicator: WP2 UVRA, Metabolic Activation: MOUSE, LIVER, S-9, Method: STANDARD PLATE inactive; negative | Test System: E. COLI, Strain/Indicator: WP2 UVRA, Metabolic Activation: NONE, Method: STANDARD PLATE inactive; negative | Test System: E. COLI, Strain/Indicator: WP2 UVRA, Metabolic Activation: RAT, LIVER, S-9, AROCLOR 1254, Method: STANDARD PLATE inactive; negative | Test System: E. COLI, Strain/Indicator: WP2 UVRA, Metabolic Activation: RAT, LIVER, S-9, Method: STANDARD PLATE inactive; negative | Test System: MOUSE LYMPHOMA, Strain/Indicator: L5178Y (TK+/TK-), Metabolic Activation: RAT, LIVER, S-9, AROCLOR 1254, Method: SUSPENSION/PLATE inactive; negative | Test System: MOUSE LYMPHOMA, Strain/Indicator: L5178Y (TK+/TK-), Metabolic Activation: RAT, LIVER, S-9, Method: SUSPENSION/PLATE inactive; negative

OC[C@H]1O[C@@H](Oc2ccc(O)cc2)[C@H](O)[C@@H](O)[C@@H]1O
inactive: Test System: Chinese hamster lung cells, Strain/Indicator: CHL (HPRT)/6-Thioguanine, Metabolic Activation: None, Method: Standard Plate inactive; negative

Cc1c(C(C)C)c(=O)n(-c2ccccc2)n1C
inactive: Test System: AMES SALMONELLA TYPHIMURIUM, Strain/Indicator: TA98, Metabolic Activation: GUINEA PIG, LIVER, S-9, PCB, Method: PREINCUBATION inactive; negative | Test System: AMES SALMONELLA TYPHIMURIUM, Strain/Indicator: TA98, Metabolic Activation: HAMSTER, LIVER, S-9, PCB, Method: PREINCUBATION inactive; negative | Test System: AMES SALMONELLA TYPHIMURIUM, Strain/Indicator: TA98, Metabolic Activation: MOUSE, LIVER, S-9, PCB, Method: PREINCUBATION inactive; negative | [1] inactive; negative | Test System: AMES SALMONELLA TYPHIMURIUM, Strain/Indicator: TA98, Metabolic Activation: RAT, LIVER, S-9, PCB, Method: PREINCUBATION inactive; negative | Test System: AMES SALMONELLA TYPHIMURIUM, Strain/Indicator: TA100, Metabolic Activation: GUINEA PIG, LIVER, S-9, PCB, Method: PREINCUBATION inactive; negative | Test System: AMES SALMONELLA TYPHIMURIUM, Strain/Indicator: TA100, Metabolic Activation: HAMSTER, LIVER, S-9, PCB, Method: PREINCUBATION inactive; negative | Test System: AMES SALMONELLA TYPHIMURIUM, Strain/Indicator: TA100, Metabolic Activation: MOUSE, LIVER, S-9, PCB, Method: PREINCUBATION inactive; negative | [2] inactive; negative | Test System: AMES SALMONELLA TYPHIMURIUM, Strain/Indicator: TA100, Metabolic Activation: RAT, LIVER, S-9, PCB, Method: PREINCUBATION inactive; negative
